Paper PMC6009892, “A novel series of pyrazole-platinum(II) complexes as potential anti-cancer agents that induce cell cycle arrest and apoptosis in breast cancer cells” (Journal of Enzyme Inhibition and Medicinal Chemistry, 2018)

What was measured:
Assay type in all cases: cell-based, human
[1] = system: MCF-7 breast cancer cells; assay: Annexin V-FITC/PI flow cytometry, MCF-7; conditions: MCF-7, 20 μM, 24 h; for percent of cells with early and late apoptosis: control 8.5%
Description: (§1) To characterise the mode of cell death induced by PtPz1–PtPz6, a flow cytometry analysis was performed using Apoptosis Detection Kit II (BD Pharmingen, San Diego, CA), according to the manufacturer’s instructions. Cells (10000 cells measured) were analysed in a flow cytometer (BD FACSCanto II flow cytometer, San Jose, CA). Annexin V bound with high affinity to phosphatidylserine and thus could be used to identify cells in all stages of the programmed cell death. Propidium iodide (PI) stained cells with a disrupted cell membrane, and it could be used to identify late apoptotic and dead cells. Cells cultured in a drug-free medium were used as controls. […] Results were analysed with FACSDiva software (BD Biosciences Systems, San Jose, CA).

[2] = system: MDA-MB-231 breast cancer cells; assay: Annexin V-FITC/PI flow cytometry, MDA-MB-231; conditions: MDA-MB-231, 20 μM, 24 h; for percent of cells with early and late apoptosis: control 7.1%
Description: as §1

[3] = system: MDA-MB-231 breast cancer cells; assay: DNA fragmentation TUNEL assay, MDA-MB-231; conditions: MDA-MB-231, 20 μM, 24 h
Description: DNA fragmentation associated with apoptosis was examined by the terminal deoxynucleotidyltransferase (TdT)- mediated dUTP nick end labeling (TUNEL) method using a commercial assay kit (APO-Direct Kit; BD Pharmingen, San Diego, CA). After treatment, the cells were fixed with 1% paraformaldehyde in PBS (4°C, 30 min), washed in PBS, and permeabilised with ice-cold 70% ethanol. The APO-Direct Kit TUNEL assay was performed as described by the manufacturer. Briefly, the fixed cells were washed twice using the kit wash buffer, and after centrifugation the supernatant was discarded. The DNA labeling solution (containing TdT enzyme and FITC-dUTP) was added to the cell pellet, and the re-suspended mixture was incubated for 1 h at 37°C with occasional shaking. At the end of incubation time, rinse buffer was added, and after centrifugation the supernatant was discarded. We repeated the cell rinsing with rinse buffer, and then suspended the cell pellet in PI/RNase staining buffer. Cells were incubated at room temperature for 30 min and immediately analysed in a BD FACSCanto II flow cytometer. In total, 10,000 events were collected per test sample. The results were analysed with FACSDiva software (both from BD Biosciences Systems, San Jose, CA). The percentage of cells with distinctive apoptotic DNA strand breaks and distinguished by green fluorescent emission was calculated.

[4] = system: caspase-8 in MCF-7 breast cancer cells; assay: FLICA caspase-8 activity, flow cytometry, MCF-7; conditions: MCF-7, 20 μM, 24 h
Description: (§2) Caspase-8 activity was measured using the FLICA Caspase 8 Assay Kit (ImmunoChemistry Technologies, Bloomington, MN, USA), according to the manufacturer’s instructions. Briefly, cultured MCF-7 and MDA-MB-231 breast cancer cells (1 × 10^6) were washed with cold PBS twice and re-suspended in buffer. We added 5 µl of diluted FLICA reagent and 2 µl of Hoechst 33342 to 93 µl of cell suspension and mixed by pipetting. The cells were incubated for 60 min at 37°C. After incubation, the cells were washed twice in 400 µl of apoptosis wash buffer and centrifuged at 300 × g. After the last wash, we re-suspended the cells in 100 µl of apoptosis wash buffer supplemented with 10 µg/ml PI. Analysis was performed using the BD FACSCanto II flow cytometer, and the results were analysed with FACSDiva software (both from BD Biosciences Systems, San Jose, CA).

[5] = system: caspase-9 in MCF-7 breast cancer cells; assay: FLICA caspase-9 activity, flow cytometry, MCF-7; conditions: MCF-7, 20 μM, 24 h
Description: as §2, with “Caspase-9” for “Caspase-8”, “9” for “8”, “re-suspended” for “re-suspended the”

[6] = system: MCF-7 breast cancer cells; assay: Cell cycle analysis by flow cytometry (PI), MCF-7; conditions: breast cancer cells (MCF-7), 20 μM, 24 h, versus control
Description: Distribution of cell cycle phases was analysed by flow cytometry. Briefly, MCF-7 and MDA-MB-231 cells were seeded into six-well plates at a density of 2.5 × 10^5 cells per well and treated with 20 μM of PtPz1–PtPz6 for 24 h. After incubation, the cells were harvested and then fixed with 1 ml of 70% ethanol and kept overnight at −20 °C. Before analysis, the cells were re-suspended in PBS, treated with 50 μg/ml of DNase-free RNase A Solution (Promega), and stained with 100 μg/ml of PI. The FACSCanto II flow cytometer (BD Biosciences Systems, San Jose, CA) was used to read the fluorescence.

[7] = system: MCF-7 breast cancer cells; assay: Mitochondrial membrane potential JC-1, MCF-7; conditions: MCF-7, 20 μM, 24 h; untreated 7.4%
Description: (§3) Disruption of the MMP was assessed using the lipophilic cationic probe 5,5′,6,6′-tetrachloro-1,1′,3,3′-tetraethylbenzimidazolcarbocyanine iodide (JC-1 MitoScreen kit; BD Biosciences Systems, San Jose, CA), as described previously. Briefly, unfixed cells were washed and re-suspended in PBS supplemented with 10 µg/ml of JC-1. Cells were then incubated for 15 min at room temperature in the dark, washed, and re-suspended in PBS for immediate BD FACSCanto II flow cytometry analysis. The percentage of cells with disrupted MMP was calculated using FACSDiva software (both from BD Biosciences Systems, San Jose, CA).

[8] = system: MDA-MB-231 breast cancer cells; assay: Mitochondrial membrane potential JC-1, MDA-MB-231; conditions: MDA-MB-231, 20 μM, 24 h; untreated 5.8%
Description: as §3

| Compound | percent of cells with early and late apoptosis [1] [%] | viable cells ([1]; control 89.7%) [%] | percent of cells with early and late apoptosis [2] [%] | viable cells ([2]; control 91.6%) [%] | percent of TUNEL positive cells [3] [%] | percent of cells with active caspase-8 [4] [%] | percent of cells with active caspase-9 [5] [%] | accumulation of cells in G2/M phase [6] [fold] | percent of cells with decrease ΔΨm [7] [%] | increase in caspase-8 activity compared with the control [4] [fold] | percent of cells with decrease ΔΨm [8] [%] |
| --- | --- | --- | --- | --- | --- | --- | --- | --- | --- | --- | --- |
| CCn1ccc[n+]1[Pt-2]1([n+]2cccn2CC)[N](c2ccc(C(=N)N)cc2)N=[N+](c2ccc(C(=N)N)cc2)[Pt-2]([n+]2cccn2CC)([n+]2cccn2CC)[N](c2ccc(C(=N)N)cc2)N=[N+]1c1ccc(C(=N)N)cc1.Cl.Cl.Cl.Cl.O.O [PtPz6, [Pt2(N-ethylpyrazole)4(berenil)2]·4HCl·2H2O] | 17.2 | 80.9 | 18.6 | 79.4 | 13.2 | 21.0 | 24.1 |  |  |  |  |
| Cc1c[nH][n+]([Pt-2]2([n+]3[nH]cc(C)c3C)[N](c3ccc(C(=N)N)cc3)N=[N+](c3ccc(C(=N)N)cc3)[Pt-2]([n+]3[nH]cc(C)c3C)([n+]3[nH]cc(C)c3C)[N](c3ccc(C(=N)N)cc3)N=[N+]2c2ccc(C(=N)N)cc2)c1C.Cl.Cl.Cl.Cl.O.O [PtPz3, [Pt2(3,4-dimethylpyrazole)4(berenil)2]·4HCl·2H2O] |  |  |  |  | 50.4 | 48.3 | 43.4 | 2.0 | 86.2 |  |  |
| Cc1cc(C)[n+]([Pt-2]2([n+]3[nH]c(C)cc3C)[N](c3ccc(C(=N)N)cc3)N=[N+](c3ccc(C(=N)N)cc3)[Pt-2]([n+]3[nH]c(C)cc3C)([n+]3[nH]c(C)cc3C)[N](c3ccc(C(=N)N)cc3)N=[N+]2c2ccc(C(=N)N)cc2)[nH]1.Cl.Cl.Cl.Cl.O.O [PtPz2, [Pt2(3,5-dimethylpyrazole)4(berenil)2]·4HCl·2H2O] |  |  |  |  | 55.8 | 56.2 | 50.5 | 2.0 | 90.0 | ~12 |  |
| N.N.[Cl][Pt][Cl] [cisplatin, reference compound] | 10.4 |  | 10.1 |  | 8.9 | 7.1 | 8.2 |  |  |  |  |
| Cc1cc(C)[n+]([Pt-2]2([n+]3c(C)cc(C)n3CO)[N](c3ccc(C(=N)N)cc3)N=[N+](c3ccc(C(=N)N)cc3)[Pt-2]([n+]3c(C)cc(C)n3CO)([n+]3c(C)cc(C)n3CO)[N](c3ccc(C(=N)N)cc3)N=[N+]2c2ccc(C(=N)N)cc2)n1CO.Cl.Cl.Cl.Cl.O.O [PtPz1, [Pt2(N-hydroxymethyl-3,5-dimethylpyrazole)4(berenil)2]·4HCl·2H2O] |  |  |  |  | 58.3 | 56.2 | 52.8 | 2.0 | 91.7 | ~12 | 90.7 |
| Cc1ccn[nH]1.Cc1ccn[nH]1.Cc1ccn[nH]1.Cc1ccn[nH]1.Cl.Cl.Cl.Cl.N=C(N)c1ccc(N=N[N]([Pt])c2ccc(C(=N)N)cc2)cc1.N=C(N)c1ccc(N=N[N]([Pt])c2ccc(C(=N)N)cc2)cc1.O.O [PtPz5, [Pt2(5-methylpyrazole)4(berenil)2]·4HCl·2H2O] |  |  |  |  | 31.6 | 46.1 | 39.6 |  |  |  |  |
